Data: US20130101680A1, “RADIOTHERAPY ENHANCER” (priority 2006, published 2013)

Tests used:
[1] = system: human pancreatic cancer strain PAN-4; assay: Tumor growth inhibition by S-1, 5-FU or gemcitabine and X-ray, human pancreatic cancer strain PAN-4 in nude mice (Test Example 3); assay type: in vivo, human (in BALB/cA-nu mouse); conditions: for radiotherapy enhancing effect (combination with X-ray), in words: combination with X-ray 2 Gy, PAN-4
Method: (b) Preparation of test solution II: 5-fluorouracil (5-FU: Wako Pure Chemical Industries, Ltd.) was dissolved in physiological saline at a concentration of 1.5 mg/mL and sterilized by filtration with a 0.45-micron Millipore filter to obtain a drug solution of 15 mg/kg as 5-FU.
(c) Preparation of test solution 3: Gemcitabine (2′-difluoro-2′,3′-dideoxycytidine: Sigma) was dissolved in physiological saline at a concentration of 5 mg/mL and sterilized by filtration with a 0.45-micron Millipore filter to obtain a drug solution of 50 mg/kg as gemcitabine.
(d) Radiation (X-ray) irradiation method: Local irradiation was performed on a human tumor strain transplanted into the right femoral region of the mouse using MBR-1505R Type 2 X-ray Irradiation System of Hitachi Medical Corporation under an irradiation condition (irradiation position) so that exposure per mouse should be 2 Gy or 5 Gy. To prevent systemic irradiation, mice were placed in a storage box made of lead so that only their right leg should be exposed to radiation.
(e) Test: The human pancreatic cancer strain (PAN-4) subcutaneously transplanted into the back of a BALB/cA-nu mouse and grown beforehand was removed, cut into small fragments of about 2×2 mm^2 with scissors in physiological saline, and subcutaneously transplanted into the right femoral region of 5 or 6-week-old mice of the same strain with a transplantation needle. The mice were prebred for at least 1 to 2 weeks and divided into the control group, the radiation alone group, the drug alone group, and the drug plus radiation group, so that the tumor volume and standard deviation (S.D.) in each group (n=6 per group) should be as uniform as possible. Then, drug administration and X-ray irradiation were initiated. […] For 5-FU and gemcitabine, the drug treatment group was administered intravenously with 0.1 mL of the above-described 5-FU and gemcitabine drug solutions per body weight 10 g using a syringe for intravenous infusion on days 1 and 8. The radiation group was irradiated with 2 Gy or 5 Gy of X-ray in the above-described manner within about 1 hour after administration of each drug solution on day 1, at the start of the test, and on day 8. Tumor-bearing mice in the control group (non-radiation/non-drug treatment group) and the radiation alone group were orally administered with 0.5% HPMC solution alone in the same manner for 14 consecutive days.
By using the above-mentioned numerical formula 1, the tumor volume of each mouse in each group was obtained prior to the start of treatment experiment, on days 3, 5, 8 (1 week later) and 11 during the treatment period, and days 15 (2 weeks later), 18, 22 (3 weeks later), 25, and 29 (4 weeks later) after completion of treatment. For the PAN-4 strain, a relative tumor volume (RTV) to the tumor volume at the start was obtained. The mean tumor growth inhibition rate (%) in each treatment group based on the control group was obtained by using the above-mentioned numerical formula 2 on days 15, at the end of the treatment period, 22, and 29 and shown in Table 4.

[2] = No-observed adverse effect level / maximum nontoxic dose in mice; conditions: as 5-FU; PAN-4 tumor-transplanted mouse, intravenous on days 1 and 8
[3] = BALB/cA-nu, mouse, in vivo, iv
[4] = system: human lung cancer LC-11 strain; assay: X-ray irradiation enhancing effect of cisplatin, human lung cancer LC-11 strain in nude mice (Comparative Example 1); assay type: in vivo, human (in BALB/cA-nu mouse)
Method: (a) Preparation of test solution I: The cisplatin solution (0.5 mg/mL) available from Bristol-Myers Squibb Company was used as it was. 0.1 mL per mouse body weight 10 g was administered for the dose of cisplatin 5 mg/kg, and […] per mouse body weight 10 g was administered for the dose of 7.5 mg/kg.
(b) Radiation (X-ray) irradiation method: Local irradiation was performed on a human tumor strain transplanted into the right femoral region of the mouse using MBR-1505R Type 2 X-ray Irradiation System of Hitachi Medical Corporation under an irradiation condition (irradiation position) so that exposure per mouse should be 2 Gy or 5 Gy. To prevent systemic irradiation, mice were placed in a storage box made of lead so that only their right leg should be exposed to radiation.
(c) Test: The human lung cancer LC-11 strain subcutaneously transplanted into the back of a BALB/cA-nu mouse and grown beforehand were removed, cut into small fragments of about 2×2 mm^2 with scissors in physiological saline, and subcutaneously transplanted into the right femoral region of 5 to 6-week-old mice of the same strain with a transplantation needle. The mice were bred for at least 1 to 2 weeks and divided into the control group, the radiation alone group, the drug alone group, and the drug plus radiation group, so that the tumor volume and standard deviation (S.D.) in each group (n=6 per group) should be as uniform as possible. Then, drug administration and X-ray irradiation were initiated. For the drug treatment group, 0.1 mL per body weight 10 g of a cisplatin solution for the dose of 5 mg/kg or […] per body weight 10 g of this solution for the dose of 7.5 mg/kg was administered into the caudal vein on day 1. The radiation group was irradiated with 2 Gy of X-ray in the above-described manner on day 1, at the start of the test, and on day 8. For tumor-bearing mice in the control group (non-radiation/non-drug treatment group) and the radiation alone group, physiological saline was administered into the caudal vein on day 1.
By using the above-mentioned numerical formula 1, the tumor volume of each mouse in each group was obtained prior to the start of treatment experiment, on days 3, 5, 8 (1 week later) and 11 during the treatment period, and days 15 (2 weeks later), 18, 22 (3 weeks later), 25, and 29 (4 weeks later) after completion of treatment. A relative tumor volume (RTV) to the tumor volume at the start of the test was obtained for each mouse. Then, the mean tumor growth inhibition rate (IR; %) in each treatment group based on the control group was obtained by using the above-mentioned numerical formula 2 on day 15, at the end of the treatment period, and on day 29, at 4 weeks later, and shown in Table 3.

[5] = 5-FU 15 mg/kg i.v. days 1 and 8 + X-ray 2 Gy
[6] = 5-FU 15 mg/kg i.v. days 1 and 8, alone
[7] = Gemcitabine 50 mg/kg i.v. days 1 and 8 + X-ray 2 Gy
[8] = Gemcitabine 50 mg/kg i.v. days 1 and 8, alone
[9] = CDDP 5.0 mg/kg i.v. day 1 + X-ray 2 Gy
[10] = CDDP 5.0 mg/kg i.v. day 1, alone
[11] = CDDP 7.5 mg/kg i.v. day 1 + X-ray 2 Gy
[12] = CDDP 7.5 mg/kg i.v. day 1, alone

SMILES: O=c1[nH]cc(F)c(=O)[nH]1 [5-FU, 5-fluorouracil]
- Tumor growth inhibition rate (IR) (%) Day 15 [1, 5]: 15.8%
- Tumor growth inhibition rate (IR) (%) Day 22 [1, 5]: 27.5%
- Tumor growth inhibition rate (IR) (%) Day 29 [1, 5]: 36.9%
- Tumor growth inhibition rate (IR) (%) Day 15 [1, 6]: 12.4%
- Tumor growth inhibition rate (IR) (%) Day 22 [1, 6]: 16.8%
- Tumor growth inhibition rate (IR) (%) Day 29 [1, 6]: 29.2%
- radiotherapy enhancing effect (combination with X-ray), in words [1]: did not show marked effect of the combination use
- maximum nontoxic dose [2]: 15 mg/kg

SMILES: Nc1ccn([C@@H]2O[C@H](CO)[C@@H](O)C2(F)F)c(=O)n1 [Gemcitabine]
- Tumor growth inhibition rate (IR) (%) Day 15 [1, 7]: 40.0%
- Tumor growth inhibition rate (IR) (%) Day 15 ([1]; Gemcitabine 50 mg/kg i.v. days 1 and 8 + X-ray 2 Gy, listed as gemcitabine): 40%
- Tumor growth inhibition rate (IR) (%) Day 22 [1, 7]: 62.3%
- Tumor growth inhibition rate (IR) (%) Day 29 [1, 7]: 63.9%
- Tumor growth inhibition rate (IR) (%) Day 15 [1, 8]: 39.8%
- Tumor growth inhibition rate (IR) (%) Day 22 [1, 8]: 51.1%
- Tumor growth inhibition rate (IR) (%) Day 29 [1, 8]: 51.1%
- radiotherapy enhancing effect (combination with X-ray), in words [1]: did not show a strong effect of the combination use
- no-observed adverse effect level [3]: 50 mg/kg

SMILES: N.N.[Cl][Pt][Cl] [cisplatin]
- IR (%) Day 15 [4, 9]: 53.8%
- IR (%) Day 29 [4, 9]: 46.8%
- IR (%) Day 15 [4, 10]: 39.9%
- IR (%) Day 29 [4, 10]: 45.6%
- IR (%) Day 15 [4, 11]: 54.6%
- IR (%) Day 29 [4, 11]: 66.8%
- IR (%) Day 15 [4, 12]: 55.8%
- IR (%) Day 29 [4, 12]: 60.2%
- radiotherapy enhancing effect (combination with X-ray), in words ([4]; cisplatin 5 mg/kg or 7.5 mg/kg with X-ray 2 Gy, LC-11): did not notably enhance antitumor effects compared with treatment with cisplatin alone
